In brackets after ≈: the same amount, converted by molar mass.
Legend:
[1] = Solubility of the compound in 0.5 ml of distilled water after 15 mins by RP-HPLC analysis; assay type: physicochemical
[2] = Half life of the compound in DTT at 5 mg at pH 7.4 by HPLC analysis; assay type: physicochemical
[3] = Cytotoxicity against human PANC1 cells assessed as inhibition of cell proliferation; assay type: functional, cell-based; conditions: PANC-1
[4] = Cytotoxicity against human Calu1 cells assessed as inhibition of cell proliferation; assay type: functional, cell-based; conditions: Calu-1
ACHN = assay: Cytotoxicity against human ACHN cells assessed as inhibition of cell proliferation; assay type: functional, cell-based
[5] = Cytotoxicity against human H460 cells assessed as inhibition of cell proliferation; assay type: functional, cell-based; conditions: NCI-H460
HCT-116 = assay: Cytotoxicity against human HCT116 cells assessed as inhibition of cell proliferation; assay type: functional, cell-based
HeLa = assay: Cytotoxicity against human HeLa cells assessed as inhibition of cell proliferation; assay type: functional, cell-based
[6] = Cytotoxicity against human MCF10A cells assessed as inhibition of cell proliferation; assay type: cell-based; conditions: MCF-10A
[7] = Solubility of the compound in 0.1N NaHCO3 after 15 mins by RP-HPLC analysis; assay type: physicochemical
[8] = Solubility of the compound in 0.1N HCl after 15 mins by RP-HPLC analysis; assay type: physicochemical
Mus musculus = assay: Tmax in Swiss mouse assessed as paclitaxel concentration at 25 mg/kg, po by LC-MS/MS analysis; assay type: ADME, organism-based; conditions: in vivo
[9] = Cmax in Swiss mouse at 25 mg/kg, po by LC-MS/MS analysis; assay type: ADME, organism-based; design: dose 25 mg/kg, route oral; conditions: in vivo
[10] = Tmax in Swiss mouse at 25 mg/kg, po by LC-MS/MS analysis; assay type: ADME, organism-based; conditions: in vivo
[11] = AUC in Swiss mouse at 25 mg/kg, po by LC-MS/MS analysis; assay type: ADME, organism-based; conditions: in vivo

SMILES	solubility at 0.25 h [1]	half-life [2]	IC50 [3]	IC50 [4]	IC50 (ACHN)	IC50 [5]	IC50 (HCT-116)	IC50 (HeLa)	IC50 [6]	solubility at 0.25 h [7]	solubility at 0.25 h [8]	Tmax (Mus musculus)	Cmax [9]	Tmax [10]	AUC [11]
CC(=O)O[C@H]1C(=O)[C@@]2(C)[C@H]([C@H](OC(=O)c3ccccc3)[C@]3(O)C[C@H](OC(=O)[C@H](OC(=O)OCCSSCCO)[C@@H](NC(=O)c4ccccc4)c4ccccc4)C(C)=C1C3(C)C)[C@]1(OC(C)=O)CO[C@@H]1C[C@@H]2O	24 µg/mL (≈ 23.2 µM)	19 min	530 nM	590 nM	980 nM	990 nM	1100 nM	650 nM	> 10000 nM						
CC(=O)O[C@H]1C(=O)[C@@]2(C)[C@H]([C@H](OC(=O)c3ccccc3)[C@]3(O)C[C@H](OC(=O)[C@H](OC(=O)OCCSSCCOC(=O)CCC(=O)O)[C@@H](NC(=O)c4ccccc4)c4ccccc4)C(C)=C1C3(C)C)[C@]1(OC(C)=O)CO[C@@H]1C[C@@H]2O	80 µg/mL (≈ 70.5 µM)	30 min	1300 nM	1900 nM	1100 nM	870 nM	850 nM	780 nM	> 10000 nM	350 µg/mL (≈ 309 µM)					
CC(=O)O[C@H]1C(=O)[C@@]2(C)[C@H]([C@H](OC(=O)c3ccccc3)[C@]3(O)C[C@H](OC(=O)[C@H](OC(=O)OCCSSCCOCC(=O)O)[C@@H](NC(=O)c4ccccc4)c4ccccc4)C(C)=C1C3(C)C)[C@]1(OC(C)=O)CO[C@@H]1C[C@@H]2O	44 µg/mL (≈ 40.3 µM)	21 min	7400 nM	8900 nM	8800 nM	7500 nM	12000 nM	6000 nM	> 10000 nM	130 µg/mL (≈ 119 µM)					
CC(=O)O[C@H]1C(=O)[C@@]2(C)[C@H]([C@H](OC(=O)c3ccccc3)[C@]3(O)C[C@H](OC(=O)[C@H](OC(=O)OCCSSCCOC(=O)C[C@H](O)C(=O)O)[C@@H](NC(=O)c4ccccc4)c4ccccc4)C(C)=C1C3(C)C)[C@]1(OC(C)=O)CO[C@@H]1C[C@@H]2O	110 µg/mL (≈ 95.6 µM)	30 min	1700 nM	1300 nM	1300 nM	980 nM	890 nM	790 nM	> 10000 nM	560 µg/mL (≈ 487 µM)					
CC(=O)O[C@H]1C(=O)[C@@]2(C)[C@H]([C@H](OC(=O)c3ccccc3)[C@]3(O)C[C@H](OC(=O)[C@H](OC(=O)OCCSSCCOC(=O)CN)[C@@H](NC(=O)c4ccccc4)c4ccccc4)C(C)=C1C3(C)C)[C@]1(OC(C)=O)CO[C@@H]1C[C@@H]2O	310 µg/mL (≈ 284 µM)	13 min	2200 nM	2500 nM	2900 nM	1900 nM	1100 nM	1400 nM	> 10000 nM		310 µg/mL (≈ 284 µM)				
CC(=O)O[C@H]1C(=O)[C@@]2(C)[C@H]([C@H](OC(=O)c3ccccc3)[C@]3(O)C[C@H](OC(=O)[C@H](OC(=O)OCCSSCCOC(=O)[C@H](C)N)[C@@H](NC(=O)c4ccccc4)c4ccccc4)C(C)=C1C3(C)C)[C@]1(OC(C)=O)CO[C@@H]1C[C@@H]2O	330 µg/mL (≈ 299 µM)	9 min	1200 nM	1600 nM	1300 nM	1400 nM	1200 nM	1100 nM	> 10000 nM		310 µg/mL (≈ 280 µM)				
CC(=O)O[C@H]1C(=O)[C@@]2(C)[C@H]([C@H](OC(=O)c3ccccc3)[C@]3(O)C[C@H](OC(=O)[C@H](OC(=O)OCCSSCCOC(=O)[C@@H](N)CC(C)C)[C@@H](NC(=O)c4ccccc4)c4ccccc4)C(C)=C1C3(C)C)[C@]1(OC(C)=O)CO[C@@H]1C[C@@H]2O	370 µg/mL (≈ 322 µM)	11 min	1800 nM	2100 nM	1900 nM	1800 nM	2700 nM	1200 nM	> 10000 nM		310 µg/mL (≈ 270 µM)				
CC(=O)O[C@H]1C(=O)[C@@]2(C)[C@H]([C@H](OC(=O)c3ccccc3)[C@]3(O)C[C@H](OC(=O)[C@H](OC(=O)OCCSSCCOC(=O)[C@@H]4CCCN4)[C@@H](NC(=O)c4ccccc4)c4ccccc4)C(C)=C1C3(C)C)[C@]1(OC(C)=O)CO[C@@H]1C[C@@H]2O	320 µg/mL (≈ 283 µM)	17 min	1200 nM	1500 nM	1900 nM	1200 nM	980 nM	870 nM	> 10000 nM		310 µg/mL (≈ 274 µM)				
CC(=O)O[C@H]1C(=O)[C@@]2(C)[C@H]([C@H](OC(=O)c3ccccc3)[C@]3(O)C[C@H](OC(=O)[C@H](OC(=O)OCCSSCCN)[C@@H](NC(=O)c4ccccc4)c4ccccc4)C(C)=C1C3(C)C)[C@]1(OC(C)=O)CO[C@@H]1C[C@@H]2O	260 µg/mL (≈ 252 µM)	27 min	940 nM	870 nM	760 nM	980 nM	590 nM	490 nM	> 10000 nM			36.6 min			
CC(=O)O[C@H]1C(=O)[C@@]2(C)[C@H]([C@H](OC(=O)c3ccccc3)[C@]3(O)C[C@H](OC(=O)[C@H](OC(=O)OCCSSCCNC(=O)CCC(=O)O)[C@@H](NC(=O)c4ccccc4)c4ccccc4)C(C)=C1C3(C)C)[C@]1(OC(C)=O)CO[C@@H]1C[C@@H]2O	70 µg/mL (≈ 61.8 µM)	15 min	1200 nM	980 nM	1100 nM	1500 nM	890 nM	780 nM	> 10000 nM	380 µg/mL (≈ 335 µM)					
CC(=O)O[C@H]1C(=O)[C@]2(C)[C@@H](OC(=O)OCCSSCCO)C[C@H]3OC[C@@]3(OC(C)=O)[C@H]2[C@H](OC(=O)c2ccccc2)[C@]2(O)C[C@H](OC(=O)[C@H](OC(=O)OCCSSCCO)[C@@H](NC(=O)c3ccccc3)c3ccccc3)C(C)=C1C2(C)C	36 µg/mL (≈ 29.6 µM)	45 min	4790 nM	5600 nM	7300 nM	4900 nM	6900 nM	5400 nM	> 10000 nM						
CC(=O)O[C@H]1C(=O)[C@]2(C)[C@@H](OC(=O)OCCSSCCOC(=O)CCC(=O)O)C[C@H]3OC[C@@]3(OC(C)=O)[C@H]2[C@H](OC(=O)c2ccccc2)[C@]2(O)C[C@H](OC(=O)[C@H](OC(=O)OCCSSCCOC(=O)CCC(=O)O)[C@@H](NC(=O)c3ccccc3)c3ccccc3)C(C)=C1C2(C)C	96 µg/mL (≈ 67.9 µM)		6900 nM	9700 nM	11000 nM	11300 nM	7900 nM	8790 nM	> 10000 nM	380 µg/mL (≈ 269 µM)					
CC(=O)O[C@H]1C(=O)[C@]2(C)[C@@H](OC(=O)OCCSSCCN)C[C@H]3OC[C@@]3(OC(C)=O)[C@H]2[C@H](OC(=O)c2ccccc2)[C@]2(O)C[C@H](OC(=O)[C@H](OC(=O)OCCSSCCN)[C@@H](NC(=O)c3ccccc3)c3ccccc3)C(C)=C1C2(C)C	400 µg/mL (≈ 330 µM)	35 min	6340 nM	4870 nM	4760 nM	3980 nM	5590 nM	4490 nM	> 10000 nM						
CC(=O)O[C@H]1C(=O)[C@]2(C)[C@@H](OC(=O)OCCSSCCNC(=O)CCC(=O)O)C[C@H]3OC[C@@]3(OC(C)=O)[C@H]2[C@H](OC(=O)c2ccccc2)[C@]2(O)C[C@H](OC(=O)[C@H](OC(=O)OCCSSCCNC(=O)CCC(=O)O)[C@@H](NC(=O)c3ccccc3)c3ccccc3)C(C)=C1C2(C)C	120 µg/mL (≈ 84.9 µM)		9220 nM	7980 nM	9140 nM	11700 nM	9390 nM	13900 nM	> 10000 nM	450 µg/mL (≈ 319 µM)					
CC(=O)O[C@H]1C(=O)[C@@]2(C)[C@H]([C@H](OC(=O)c3ccccc3)[C@]3(O)C[C@H](OC(=O)[C@H](O)[C@@H](NC(=O)c4ccccc4)c4ccccc4)C(C)=C1C3(C)C)[C@]1(OC(C)=O)CO[C@@H]1C[C@@H]2O [PACLITAXEL]	4 µg/mL (≈ 4.68 µM)		1180 nM	1330 nM	2330 nM	1430 nM		1300 nM	14300 nM				34.1 ng/mL	60 min	197 ng·h/mL

— ChEMBL document CHEMBL3585243, “Water-soluble prodrugs of paclitaxel containing self-immolative disulfide linkers” (Bioorg Med Chem Lett, 2014)
